pKd: −log10 of the molar value.
Legend:
[1] = target: EF-Tu (T. thermophilus) (Thermus thermophilus, UniProt Q5SHN6, T395C); experiment: nitrocellulose filter binding with [3H]GDP
[2] = target: EF-Tu (T. thermophilus) (Thermus thermophilus, UniProt Q5SHN6); experiment: nitrocellulose filter binding with [3H]GDP

pKd [1]: 7.96
pKd [2]: 8.15
SMILES: Nc1nc2c(ncn2[C@@H]2O[C@H](COP(=O)(O)OP(=O)(O)O)[C@@H](O)[C@H]2O)c(=O)[nH]1 [GDP]

From publication PMC3210414 (Nature structural & molecular biology, 2011)
